# Target: T1, human EP2 (PTGER2) (Homo sapiens, UniProt P43116)
# T1 construct: Cayman Chemical (Human EP2 Reporter Assay Kit)
# Test: EP2 antagonist assay (HEK-293 CNG membrane potential cAMP assay / 293T SEAP reporter assay, PGE2-stimulated)
# Assay type: cell-based
# Details: EP2 antagonist activity; concentration for 50% inhibition of signal compared to DMSO
# In short: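 HEK-293 CNG cells expressing human EP2: compound preincubated 15 min at RT, then PGE2 at 5 nM final, 30 min; membrane-potential dye fluorescence (ex 530, em 590 nm), background-subtracted, gave IC50. Alternatively, 293T cells reverse-transfected with EP2 and CRE-SEAP, compound plus 13 nM PGE2 for 6-8 h, SEAP luminescence.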
# T1 sequence (P43116 whole entry): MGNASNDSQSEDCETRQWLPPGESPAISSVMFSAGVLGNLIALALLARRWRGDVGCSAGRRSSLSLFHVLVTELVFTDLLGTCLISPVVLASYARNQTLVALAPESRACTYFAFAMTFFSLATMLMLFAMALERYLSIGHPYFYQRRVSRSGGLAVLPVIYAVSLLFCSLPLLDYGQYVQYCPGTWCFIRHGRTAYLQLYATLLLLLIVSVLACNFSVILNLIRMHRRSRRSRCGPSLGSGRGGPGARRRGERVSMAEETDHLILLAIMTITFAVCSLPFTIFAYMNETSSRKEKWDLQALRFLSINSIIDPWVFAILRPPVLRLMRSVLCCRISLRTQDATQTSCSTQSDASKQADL
row,Compound,IC50
1,"C[C@H](NC(=O)c1cc(-c2ccc(F)c(F)c2)cc2cnn(Cc3ccc(-c4ccc(F)cc4)cc3)c12)c1ccc(C(=O)O)cc1 [Example 205, (S)-4-(1-(5-(3,4-difluorophenyl)-1-((4′-fluoro-[1,1′-biphenyl]-4-yl)methyl)-1H-indazole-7-carboxamido)ethyl)benzoic acid]",< 100 nM
2,"N#Cc1cccc(-c2cc(C(=O)NC3(c4ccc(C(=O)O)cc4)CC3)c3c(ccn3Cc3cccc(Cl)c3)c2)c1 [Example 206, 4-(1-(1-(3-chlorobenzyl)-5-(3-cyanophenyl)-1H-indole-7-carboxamido)cyclopropyl)benzoic acid]",< 100 nM
3,"C[C@H](NC(=O)c1cc(-c2ccc(F)c(F)c2)cc2ccn(Cc3ccc(-c4ccccc4)cc3)c12)c1ccc(C(=O)O)cc1 [Example 207, (S)-4-(1-(1-([1,1′-biphenyl]-4-ylmethyl)-5-(3,4-difluorophenyl)-1H-indole-7-carboxamido)ethyl)benzoic acid]",< 100 nM
4,"O=C(O)c1ccc(CNC(=O)c2cc(-c3ccccc3)cc3ccn(Cc4ccc(-c5ccc(F)cc5)cc4)c23)cc1 [Example 208, 4-((1-((4′-fluoro-[1,1′-biphenyl]-4-yl)methyl)-5-phenyl-1H-indole-7-carboxamido)methyl)benzoic acid]",< 100 nM
5,"O=C(O)c1ccc(CNC(=O)c2cc(-c3ccc(F)cc3)cc3ccn(Cc4ccc(-c5ccc(F)cc5)cc4)c23)cc1 [Example 209, 4-((1-((4′-fluoro-[1,1′-biphenyl]-4-yl)methyl)-5-(4-fluorophenyl)-1H-indole-7-carboxamido)methyl)benzoic acid]",< 100 nM
6,"O=C(O)c1ccc(CNC(=O)c2cc(-c3cc(F)cc(F)c3)cc3ccn(Cc4ccc(-c5ccc(F)cc5)cc4)c23)cc1 [Example 210, 4-((5-(3,5-difluorophenyl)-1-((4′-fluoro-[1,1′-biphenyl]-4-yl)methyl)-1H-indole-7-carboxamido)methyl)benzoic acid]",< 100 nM
7,"O=C(O)c1ccc(CNC(=O)c2cc(-c3ccc(F)c(F)c3)cc3ccn(Cc4ccc(-c5ccc(F)cc5)cc4)c23)cc1 [Example 211, 4-((5-(3,4-difluorophenyl)-1-((4′-fluoro-[1,1′-biphenyl]-4-yl)methyl)-1H-indole-7-carboxamido)methyl)benzoic acid]",< 100 nM
8,"C[C@H](NC(=O)c1cc(-c2ccccc2)cc2ccn(Cc3ccc(-c4ccc(F)cc4)cc3)c12)c1ccc(C(=O)O)cc1 [Example 212, (S)-4-(1-(1-((4′-fluoro-[1,1′-biphenyl]-4-yl)methyl)-5-phenyl-1H-indole-7-carboxamido)ethyl)benzoic acid]",< 100 nM
9,"C[C@H](NC(=O)c1cc(-c2ccc(F)cc2)cc2ccn(Cc3ccc(-c4ccc(F)cc4)cc3)c12)c1ccc(C(=O)O)cc1 [Example 213, (S)-4-(1-(1-((4′-fluoro-[1,1′-biphenyl]-4-yl)methyl)-5-(4-fluorophenyl)-1H-indole-7-carboxamido)ethyl)benzoic acid]",< 100 nM
10,"C[C@H](NC(=O)c1cc(-c2cc(F)cc(F)c2)cc2ccn(Cc3ccc(-c4ccc(F)cc4)cc3)c12)c1ccc(C(=O)O)cc1 [Example 214, (S)-4-(1-(5-(3,5-difluorophenyl)-1-((4′-fluoro-[1,1′-biphenyl]-4-yl)methyl)-1H-indole-7-carboxamido)ethyl)benzoic acid]",< 100 nM
11,"C[C@H](NC(=O)c1cc(-c2ccc(F)c(F)c2)cc2ccn(Cc3ccc(-c4ccc(F)cc4)cc3)c12)c1ccc(C(=O)O)cc1 [Example 215, (S)-4-(1-(5-(3,4-difluorophenyl)-1-((4′-fluoro-[1,1′-biphenyl]-4-yl)methyl)-1H-indole-7-carboxamido)ethyl)benzoic acid]",< 100 nM
12,"O=C(O)c1ccc(CNC(=O)c2cc(-c3ccc(F)c(F)c3)cc3ccn(Cc4ccc5ccccc5c4)c23)cc1 [Example 216, 4-((5-(3,4-difluorophenyl)-1-(naphthalen-2-ylmethyl)-1H-indole-7-carboxamido)methyl)benzoic acid]",< 100 nM
13,"C[C@H](NC(=O)c1cc(-c2ccc(F)c(F)c2)cc2ccn(Cc3ccc4ccccc4c3)c12)c1ccc(C(=O)O)cc1 [Example 217, (S)-4-(1-(5-(3,4-difluorophenyl)-1-(naphthalen-2-ylmethyl)-1H-indole-7-carboxamido)ethyl)benzoic acid]",< 100 nM
14,"O=C(O)c1ccc(CNC(=O)c2cc(-c3ccc(F)c(F)c3)cc3cnn(Cc4ccc5ccccc5c4)c23)cc1 [Example 218, 4-((5-(3,4-difluorophenyl)-1-(naphthalen-2-ylmethyl)-1H-indazole-7-carboxamido)methyl)benzoic acid]",< 100 nM
15,"C[C@H](NC(=O)c1cc(-c2ccc(F)c(F)c2)cc2cnn(Cc3ccc4ccccc4c3)c12)c1ccc(C(=O)O)cc1 [Example 219, (S)-4-(1-(5-(3,4-difluorophenyl)-1-(naphthalen-2-ylmethyl)-1H-indazole-7-carboxamido)ethyl)benzoic acid]",< 100 nM
16,"C[C@H](NC(=O)c1cc(-c2ccc(F)c(F)c2)cc2cnn(Cc3cccc(C(F)(F)F)c3)c12)c1ccc(C(=O)O)cc1 [Example 220, (S)-4-(1-(5-(3,4-difluorophenyl)-1-(3-(trifluoromethyl)benzyl)-1H-indazole-7-carboxamido)ethyl)benzoic acid]",< 100 nM
17,((5-(3-cyano-5-fluorophenyl)-1-(4-(trifluoromethyl)benzyl)-1H-indole-7-carboxamido)methyl)benzoic acid [Example 77],< 100 nM
